Data published in US20130121994A1, “TRIAZOLOPYRIDINE DERIVATIVES” (BAYER INTELLECTUAL PROPERTY GMBH, priority 2009, published 2013).

Each compound was assayed against T1, human kinase Mps-1 (Homo sapiens, UniProt P33981) (assay: Mps-1 kinase assay (HTRF)).
T1 construct: N-terminally GST-tagged human full length recombinant Mps-1 kinase; GST (N); purchased Invitrogen, Karslruhe, Germany PV4071
T1 sequence (P33981 1-857): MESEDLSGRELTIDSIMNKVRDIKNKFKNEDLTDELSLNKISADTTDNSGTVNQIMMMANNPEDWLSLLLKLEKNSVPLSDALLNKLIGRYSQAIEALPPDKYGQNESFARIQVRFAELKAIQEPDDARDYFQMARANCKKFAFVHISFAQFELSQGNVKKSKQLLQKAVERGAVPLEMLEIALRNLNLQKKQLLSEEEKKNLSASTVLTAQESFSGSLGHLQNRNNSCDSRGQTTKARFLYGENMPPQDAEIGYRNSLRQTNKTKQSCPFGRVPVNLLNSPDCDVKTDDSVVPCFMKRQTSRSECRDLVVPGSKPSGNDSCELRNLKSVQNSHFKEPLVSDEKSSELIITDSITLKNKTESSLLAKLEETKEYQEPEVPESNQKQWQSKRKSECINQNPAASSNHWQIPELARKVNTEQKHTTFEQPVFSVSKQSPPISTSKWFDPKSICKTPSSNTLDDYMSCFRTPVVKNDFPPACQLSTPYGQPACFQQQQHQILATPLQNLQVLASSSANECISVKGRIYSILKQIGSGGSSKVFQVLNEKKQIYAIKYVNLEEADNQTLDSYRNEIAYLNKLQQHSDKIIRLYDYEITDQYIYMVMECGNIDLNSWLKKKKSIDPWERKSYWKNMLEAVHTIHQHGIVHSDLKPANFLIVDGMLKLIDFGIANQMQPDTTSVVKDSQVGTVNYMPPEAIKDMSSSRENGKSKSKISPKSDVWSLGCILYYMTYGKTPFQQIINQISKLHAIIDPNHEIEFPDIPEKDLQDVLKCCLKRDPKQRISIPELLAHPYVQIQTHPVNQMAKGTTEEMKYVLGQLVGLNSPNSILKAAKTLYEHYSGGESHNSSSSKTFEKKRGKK
Format: biochemical

IC50 [nM] | SMILES
≤ 1 | CCNC(=O)c1ccc(Nc2nc3ccc(-c4cccc(C(=O)NCC(C)(C)C)c4)cn3n2)c(OC)c1 [Example 11.079, 4-[(6-{3-[(2,2-dimethylpropyl)carbamoyl]phenyl}[1,2,4]tria-zolo[1,5-a]pyridin-2-yl)amino]-N-ethyl-3-methoxybenzamide]
≤ 1 | COc1cc(C(=O)NCCS(C)(=O)=O)ccc1Nc1nc2ccc(-c3cccc(C(=O)NCC(F)(F)F)c3)cn2n1 [Example 11.080, 3-methoxy-N-[2-(methylsulfonyl)ethyl]-4-[(6-{3-[(2,2,2-trifluoroethyl)carbamoyl]phenyl}[1,2,4]triazolo [1,5-a]pyridin-2-yl)amino]benzamide]
≤ 1 | CCNC(=O)c1ccc(Nc2nc3ccc(-c4cccc(C(=O)NCC(F)(F)F)c4)cn3n2)c(OC)c1 [Example 11.081, N-ethyl-3-methoxy-4-[(6-{3-[(2,2,2-trifluoroethyl)carbamoyl]phenyl}[1,2,4]triazolo [1,5-a]pyridin-2-yl)amino]benzamide]
1.23 | COc1cc(C(=O)NC(C)(C)C)ccc1Nc1nc2ccc(-c3cccc(C(=O)NCC(C)(C)C)c3)cn2n1 [Example 11.082, N-tert-butyl-4-[(6-{3-[(2,2-dimethylpropyl)carbamoyl]phenyl}[1,2,4]tria-zolo[1,5-a]pyridin-2-yl)amino]-3-methoxybenzamide]
≤ 1 | CCNC(=O)c1ccc(Nc2nc3ccc(-c4cccc(C(=O)NCC(F)(F)C(F)(F)F)c4)cn3n2)c(OC)c1 [Example 11.083, N-ethyl-3-methoxy-4-[(6-{3-[(2,2,3,3,3-pentafluoropropyl)carbamoyl]phenyl}[1,2,4]triazolo[1,5-a]pyridin-2-yl)amino]benzamide]
1.07 | COc1cc(C(=O)NCC(F)(F)F)ccc1Nc1nc2ccc(-c3cccc(C(=O)NCC(C)(C)C)c3)cn2n1 [Example 11.084, 4-[(6-{3-[(2,2-dimethylpropyl)carbamoyl]phenyl}[1,2,4]tria-zolo[1,5-a]pyridin-2-yl)amino]-3-methoxy-N-(2,2,2-trifluoroethyl)benzamide]
1.01 | CCOc1cc(C(=O)NC(C)(C)C)ccc1Nc1nc2ccc(-c3cccc(C(=O)NCC(C)(C)C)c3)cn2n1 [Example 11.089, N-tert-butyl-4-[(6-{3-[(2,2-dimethylpropyl)carbamoyl]phenyl}[1,2,4]tria-zolo[1,5-a]pyridin-2-yl)amino]-3-ethoxybenzamide]
1.62 | CCOc1cc(C(=O)NC(C)(C)C)ccc1Nc1nc2ccc(-c3cccc(C(=O)NCC(F)(F)F)c3)cn2n1 [Example 11.090, N-tert-butyl-3-ethoxy-4-[(6-{3-[(2,2,2-trifluoroethyl)carbamoyl]phenyl}[1,2,4]triazolo [1,5-a]pyridin-2-yl)amino]benzamide]
≤ 1 | CC(C)(C)CNC(=O)c1cccc(-c2ccc3nc(Nc4ccc(C(=O)NCCO)cc4OCC(F)(F)F)nn3c2)c1 [Example 11.091, 4-[(6-{3-[(2,2-dimethylpropyl)carbamoyl]phenyl}[1,2,4]tria-zolo[1,5-a]pyridin-2-yl)amino]-N-(2-hydroxyethyl)-3-(2,2,2-trifluoroethoxy)benzamide]
≤ 1 | CC(C)(C)CNC(=O)c1cccc(-c2ccc3nc(Nc4ccc(C(=O)NC(C)(C)CO)cc4OCC(F)(F)F)nn3c2)c1 [Example 11.092, 4-[(6-{3-[(2,2-dimethylpropyl)carbamoyl]phenyl}[1,2,4]tria-zolo[1,5-a]pyridin-2-yl)amino]-N-(1-hydroxy-2-methylpropan-2-yl)-3-(2,2,2-trifluoroethoxy)benzamide]
18.9 | CC(C)(C)CC(=O)Nc1ccc(-c2ccc3nc(Nc4ccccc4C#N)nn3c2)cc1 [Example 11.099, N-(4-{2-[(2-cyanophenyl)amino][1,2,4]triazolo[1,5-a]pyridin-6-yl}phenyl)-3,3-dimethylbutanamide]
2.53 | COc1cc(C(=O)NC(C)(C)C)ccc1Nc1nc2ccc(-c3ccc(NC(=O)CC(F)(F)F)cc3)cn2n1 [Example 11.101, N-tert-butyl-3-methoxy-4-[(6-{4-[(3,3,3-trifluoropropanoyl)amino]phenyl}[1,2,4]triazolo [1,5-a]pyridin-2-yl)amino]benzamide]

The remaining lines, values behind:

SMILES | IC50 [nM]
COc1cc(C(=O)NCCS(C)(=O)=O)ccc1Nc1nc2ccc(-c3cccc(C(=O)NCC(C)(C)C)c3)cn2n1 [Example 11.078, 4-[(6-{3-[(2,2-dimethylpropyl)carbamoyl]phenyl}[1,2,4]tria-zolo[1,5-a]pyridin-2-yl)amino]-3-methoxy-N-[2-(methylsulfonyl)ethyl]benzamide] | ≤ 1
CCOc1cc(C(=O)NCCS(C)(=O)=O)ccc1Nc1nc2ccc(-c3cccc(C(=O)NCC(C)(C)C)c3)cn2n1 [Example 11.085, 4-[(6-{3-[(2,2-dimethylpropyl)carbamoyl]phenyl}[1,2,4]tria-zolo[1,5-a]pyridin-2-yl)amino]-3-ethoxy-N-[2-(methylsulfonyl)ethyl]benzamide] | ≤ 1
CCOc1cc(C(=O)NCCS(C)(=O)=O)ccc1Nc1nc2ccc(-c3cccc(C(=O)NCC(F)(F)F)c3)cn2n1 [Example 11.086, 3-ethoxy-N-[2-(methylsulfonyl)ethyl]-4-[(6-{3-[(2,2,2-trifluoroethyl)carbamoyl]phenyl}[1,2,4]triazolo [1,5-a]pyridin-2-yl)amino]benzamide] | ≤ 1
CCNC(=O)c1ccc(Nc2nc3ccc(-c4cccc(C(=O)NCC(C)(C)C)c4)cn3n2)c(OCC)c1 [Example 11.087, 4-[(6-{3-[(2,2-dimethylpropyl)carbamoyl]phenyl}[1,2,4]tria-zolo[1,5-a]pyridin-2-yl)amino]-3-ethoxy-N-ethylbenzamide] | ≤ 1
CCNC(=O)c1ccc(Nc2nc3ccc(-c4cccc(C(=O)NCC(F)(F)F)c4)cn3n2)c(OCC)c1 [Example 11.088, 3-ethoxy-N-ethyl-4-[(6-{3-[(2,2,2-trifluoroethyl)carbamoyl]phenyl}[1,2,4]triazolo [1,5-a]pyridin-2-yl)amino]benzamide] | ≤ 1
O=C(NCCO)c1ccc(Nc2nc3ccc(-c4cccc(C(=O)NCC(F)(F)F)c4)cn3n2)c(OCC(F)(F)F)c1 [Example 11.093, N-(2-hydroxyethyl)-3-(2,2,2-trifluoroethoxy)-4-[(6-{3-[(2,2,2-trifluoroethyl)carbamoyl]phenyl}[1,2,4]triazolo [1,5-a]pyridin-2-yl)amino]benzamide] | ≤ 1
CC(C)(CO)NC(=O)c1ccc(Nc2nc3ccc(-c4cccc(C(=O)NCC(F)(F)F)c4)cn3n2)c(OCC(F)(F)F)c1 [Example 11.094, N-(1-hydroxy-2-methylpropan-2-yl)-3-(2,2,2-trifluoroethoxy)-4-[(6-{3-[(2,2,2-trifluoroethyl)carbamoyl]phenyl}[1,2,4]triazolo [1,5-a]pyridin-2-yl)amino]benzamide] | ≤ 1
CC(C)(C)CNC(=O)c1cccc(-c2ccc3nc(Nc4ccc(C(=O)NCC(C)(C)O)cc4OCC(F)(F)F)nn3c2)c1 [Example 11.095, 4-[(6-{3-[(2,2-dimethylpropyl)carbamoyl]phenyl}[1,2,4]tria-zolo[1,5-a]pyridin-2-yl)amino]-N-(2-hydroxy-2-methylpropyl)-3-(2,2,2-trifluoroethoxy)benzamide] | ≤ 1
CC(C)(O)CNC(=O)c1ccc(Nc2nc3ccc(-c4cccc(C(=O)NCC(F)(F)F)c4)cn3n2)c(OCC(F)(F)F)c1 [Example 11.096, N-(2-hydroxy-2-methylpropyl)-3-(2,2,2-trifluoroethoxy)-4-[(6-{3-[(2,2,2-trifluoroethyl)carbamoyl]phenyl}[1,2,4]triazolo [1,5-a]pyridin-2-yl)amino]benzamide] | ≤ 1
CNS(=O)(=O)c1cccc(-c2ccc3nc(Nc4cccc(F)c4C#N)nn3c2)c1 [Example 11.098, 3-{2-[(2-cyano-3-fluorophenyl)amino][1,2,4]triazolo[1,5-a]pyridin-6-yl}-N-methylbenzenesulfonamide] | 97.6
CC(C)(C)CCC(=O)Nc1ccc(-c2ccc3nc(Nc4ccccc4C#N)nn3c2)cc1 [Example 11.100, N-(4-{2-[(2-cyanophenyl)amino][1,2,4]triazolo[1,5-a]pyridin-6-yl}phenyl)-4,4-dimethylpentanamide] | 8.08
